Measurements taken from patent publication US20100022613A1, “Compounds Having CRTH2 Antagonist Activity” (Oxagen Limited, priority 2008, published 2010).

What was measured:
[1] = target: T1, CRTH2 receptor (Homo sapiens, UniProt Q9Y5Y4); assay: Radioligand binding assay ([3H]PGD2) on CHO/CRTH2 cell membranes; conditions: [3H]PGD2 binding
T1 construct: expressed in transfected cells; host or cells: Chinese Hamster Ovary (CHO) cells, membranes
T1 sequence (Q9Y5Y4 1-395): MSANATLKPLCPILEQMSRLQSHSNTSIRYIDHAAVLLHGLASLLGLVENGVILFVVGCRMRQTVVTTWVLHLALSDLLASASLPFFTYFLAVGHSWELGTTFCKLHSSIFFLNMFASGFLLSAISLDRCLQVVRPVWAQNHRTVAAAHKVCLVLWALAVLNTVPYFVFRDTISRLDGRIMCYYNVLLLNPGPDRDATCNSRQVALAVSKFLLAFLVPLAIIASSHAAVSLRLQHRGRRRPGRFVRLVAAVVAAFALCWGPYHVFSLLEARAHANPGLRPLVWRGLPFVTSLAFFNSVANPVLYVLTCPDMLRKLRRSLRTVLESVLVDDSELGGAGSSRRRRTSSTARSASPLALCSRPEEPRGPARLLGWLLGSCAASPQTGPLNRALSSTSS
Procedure: Chinese Hamster Ovary cells were transfected with CRTH2 or DP receptors (CHO/CRTH2 and CHO/DP) and were maintained in culture in a humidified atmosphere at 37° C. (5% CO2) in Minimum Essential Medium (MEM) supplemented with 10% foetal bovine serum, 2 mM glutamine, and 1 mg ml^−1 active G418. The cells were passaged every 2-3 days. For radioligand binding assay, cells were prepared in triple-layer flasks or in 175 cm^2 square flasks (for membrane preparation).
Membranes were prepared either from CHO/CRTH2 and CHO/DP cells, or from platelets (as a source of TP receptors). CHO cells grown to confluency were washed with PBS and detached using a Versene solution (15 ml per flask). When the cells were grown in 175 cm^2 square flask, they were collected by scrapping in PBS. The cell suspensions were centrifuged (1,700 rpm, 10 min, 4° C.) and resuspended in 15 ml of buffer (1× HBSS, supplemented with 10 mM HEPES, pH 7.3). Cell suspensions were then homogenised using an Ultra Turrax at setting 4-6 for 20 s. The homogenate was centrifuged at 1,700 rpm for 10 min and the supernatant was collected and centrifuged at 20,000 rpm for 1 h at 4° C. The resulting pellet was resuspended in buffer and stored at −80° C. in aliquots of 200-500 μl. The protein concentration was determined by the method of Bradford (1976), using bovine serum albumin as standard. The platelets were washed by centrifugation at 600×g for 10 min and resuspended in ice-cold assay buffer (10 mM Tris-HCl, pH 7.4, 5 mM Glucose, 120 mM NaCl, 10 μM indomethacin) and directly centrifuged at 20,000 rpm for 30 min at 4° C. The resulting pellet was treated as described above.
[^3H]PGD2 (160 Ci/mmol) binding experiments were performed on membranes prepared as described above. Assays were performed in a final volume of 100 μl of buffer (1× HBSS/HEPES 10 mM, pH 7.3). Cell membranes (15 μg) were preincubated at room temperature with varying concentration of competing ligand for 15 min. [^3H]PGD2 was then added and the incubation continued for a further one hour at room temperature. The reaction was terminated by the addition of 200 μl ice-cold assay buffer to each well, followed by rapid filtration through Whatman GF/B glass fibre filters using a Unifilter Cell harvester (PerkinElmer Life Sciences) and six washes of 300 μl of ice-cold buffer. The Unifilter plates were dried at room temperature for at least 1 h and the radioactivity retained on the filters was determined on a Beta Trilux counter (PerkinElmer Life Sciences), following addition of 40 μl of Optiphase Hi-Safe 3 (Wallac) liquid scintillation. Non specific binding was defined in the presence of 10 μM unlabelled PGD2. Assays were performed in duplicate.

[2] = tested on: PGD2-induced eosinophil shape change; assay: Human whole blood eosinophil shape change assay (PGD2-induced); assay type: cell-based; conditions: 10 nM PGD2, read-out: IC50 for the effect on 10 nM PGD2-induced eosinophil shape change in whole blood
Procedure: Compounds 1-6 were assayed for their effect on PGD2 induced eosinophil shape change.
Compounds (1 μl, 200× final concentration) were added directly to 200 μl whole blood, mixed well and incubated for 15 min, 37° C., 5% CO2. After this time, cell shape was fixed by addition of 300 μl Cytofix™ buffer (BD Biosciences), 15 min on ice. 10 ml RBC lysis buffer was added to the fixed cells, incubated 5 min, at room temperature and centrifuged, 300×g for 5 min. Supernatant (containing lysed red cells) was removed and the lysis step was repeated. Leukocytes were resuspended in 250 μl RPMI/10% FCS and shape change analysed by FACS. Eosinophils were gated out based on their autofluorescence and 2000 eosinophil events were counted per sample. Data were analysed in triplicate.

| Ki [1] | IC50 [2] | Structure (SMILES) |
| --- | --- | --- |
| 1 nM | 1 nM | Cc1c(Cc2ccc(S(=O)(=O)Cc3ccccc3)cc2)c2cc(F)ccc2n1CC(=O)O [Compound 1, 2-(3-(4-(Benzylsulfonyl)benzyl)-5-fluoro-2-methyl-1H-indol-1-yl)acetic acid] |
| 5 nM |  | Cc1c(Cc2ccc(S(=O)(=O)Cc3ccc(Cl)cc3)cc2)c2cc(F)ccc2n1CC(=O)O [Compound 2, 2-(3-(4-(4-Chlorobenzylsulfonyl)benzyl)-5-fluoro-2-methyl-1H-indol-1-yl)acetic acid] |
| 3 nM | 77 nM | Cc1c(Cc2cccc(S(=O)(=O)Cc3ccccc3)c2)c2cc(F)ccc2n1CC(=O)O [Compound 3, 2-(3-(3-(Benzylsulfonyl)benzyl)-5-fluoro-2-methyl-1H-indol-1-yl)acetic acid] |
| 1 nM |  | Cc1c(Cc2cccc(S(=O)(=O)Cc3ccc(F)cc3)c2)c2cc(F)ccc2n1CC(=O)O [Compound 4, 2-(5-Fluoro-3-(3-(4-fluorobenzylsulfonyl)benzyl)-2-methyl-1H-indol-1-yl)acetic acid] |
| 3 nM | 12 nM | Cc1c(Cc2ccccc2S(=O)(=O)Cc2ccccc2)c2cc(F)ccc2n1CC(=O)O [Compound 5, 2-(3-(2-(Benzylsulfonyl)benzyl)-5-fluoro-2-methyl-1H-indol-1-yl)acetic acid] |
| 3 nM | 3 nM | Cc1c(Cc2ccc(S(=O)(=O)Cc3ccc(F)cc3)cc2)c2cc(F)ccc2n1CC(=O)O [Compound 6, 2-(3-(4-(4-Fluorobenzylsulfonyl)benzyl)-5-fluoro-2-methyl-1H-indol-1-yl)acetic acid] |
